Laboratory results as given in patent US20220213060A1, “Crystal Form of Quinazolinone Compound and Preparation Method Therefor” (Luoxin Healthcare Science and Technology Development …, priority 2019, published 2022).

Columns and labels:
PI3Kδ = target: T1, PI3Kδ (Homo sapiens, UniProt O00329); assay: In vitro enzymatic activity test (ADP-Glo lipid kinase), PI3Kδ; format: biochemical; details: inhibitory activity against PI3Kα relative to PI3Kδ
T1 construct: purchased Millipore 14-604-K
Protocol: The lipid kinase reaction was carried out in a suitable substrate and under ATP conditions, then the activity of the kinase was detected by ADP-Glo™ kit in two steps. Step 1: the kinase reaction was terminated, in which the residual ATP was completely removed and only ADP was retained; step 2: kinase detection reagent was added to convert ADP to ATP, accompanied by fluorescein/luciferase reaction. Finally, the fluorescence value output was converted into kinase activity.
Experimental Materials and Equipment:
2) Kit: ADP-Glo™ lipid kinase and PIP2:3PS kit (Promega #V1792)
The reagent kit contains: 1 mM PIP2:3PS, 10× lipid dilution buffer, 1 M magnesium chloride, 10 mM ATP, 10 mM ADP, ADP-Glo reagent, detection buffer and detection substrate.
3) Reaction plate: OptiPlate-384, white and transparent (PerkinElmer #6007299)
1) 10× reaction buffer: 500 mM HEPES, pH 7.5, 500 mM NaCl, […]; BSA: 10% stock solution, self-made
2) Final test system conditions: 1× reaction system: 50 mM of HEPES, 50 mM of NaCl, 3 mM of MgCl2, 0.01% BSA (freshly prepared on the day of experiment), 1% DMSO (v/v)+/−compound
3) Reaction system: 3 μL of mixture of enzyme and substrate (1:1)+2 μL of ATP/MgCl2 mixture+5 μL of ADP-Glo reagent+10 μL of detection reagent.
The specific experimental operations were as follows: […]
(16) Fluorescence values were measured on the Envision instrument.

p-AKT = assay: Western blot analysis of p-AKT protein expression level in BT474 tumor tissue samples; format: in vivo; details: BT-474 nude mouse transplanted tumor model, 0.5 h, 4 h, 24 h after administration
Protocol: 7.1 Protein extraction and quantification
1) Quick-frozen tissue samples were taken out from the refrigerator at −80° C.
2) Operating on dry ice, cutting part of the tissues (about 30 mg), putting them into a 2 mL centrifuge tube with steel balls, and adding 500 μL of cell lysate RIPA (1% protease inhibitor and phosphatase inhibitor had been newly added).
3) Tissue was broken for 5 minutes using the highest frequency of Tissuelyser LT.
4) The tissue lysate was placed on ice for 30 minutes.
5) Centrifuging at 12,000 rpm at 4° C. for 10 minutes and removing the supernatant into a new 1.5 mL centrifuge tube.
6) The protein was quantified by BCA quantitative kit.
7) According to the quantitative results, the protein sample for loading was prepared, the protein concentration of the sample was unified to 2 μg/μL, LDS loading buffer (4×) and sample reducing agent (10×) were added, and the sample was heated at a constant temperature of 100° C. for 10 minutes.
8) Western blotting, or storing the denatured samples in a refrigerator at −80° C.
1) The sample for loading was thawed. […]
5) After the membrane transfer was finished, the membrane was cut according to the molecular weight of the protein to be detected, the membrane was washed with 1×TBST for 3 times and 5 minutes each time, and was shaken at room temperature. […]
13) Chemiluminescence was detected and photographed on the Tanon 5200 multi machine.

T1 sequence (O00329 whole entry): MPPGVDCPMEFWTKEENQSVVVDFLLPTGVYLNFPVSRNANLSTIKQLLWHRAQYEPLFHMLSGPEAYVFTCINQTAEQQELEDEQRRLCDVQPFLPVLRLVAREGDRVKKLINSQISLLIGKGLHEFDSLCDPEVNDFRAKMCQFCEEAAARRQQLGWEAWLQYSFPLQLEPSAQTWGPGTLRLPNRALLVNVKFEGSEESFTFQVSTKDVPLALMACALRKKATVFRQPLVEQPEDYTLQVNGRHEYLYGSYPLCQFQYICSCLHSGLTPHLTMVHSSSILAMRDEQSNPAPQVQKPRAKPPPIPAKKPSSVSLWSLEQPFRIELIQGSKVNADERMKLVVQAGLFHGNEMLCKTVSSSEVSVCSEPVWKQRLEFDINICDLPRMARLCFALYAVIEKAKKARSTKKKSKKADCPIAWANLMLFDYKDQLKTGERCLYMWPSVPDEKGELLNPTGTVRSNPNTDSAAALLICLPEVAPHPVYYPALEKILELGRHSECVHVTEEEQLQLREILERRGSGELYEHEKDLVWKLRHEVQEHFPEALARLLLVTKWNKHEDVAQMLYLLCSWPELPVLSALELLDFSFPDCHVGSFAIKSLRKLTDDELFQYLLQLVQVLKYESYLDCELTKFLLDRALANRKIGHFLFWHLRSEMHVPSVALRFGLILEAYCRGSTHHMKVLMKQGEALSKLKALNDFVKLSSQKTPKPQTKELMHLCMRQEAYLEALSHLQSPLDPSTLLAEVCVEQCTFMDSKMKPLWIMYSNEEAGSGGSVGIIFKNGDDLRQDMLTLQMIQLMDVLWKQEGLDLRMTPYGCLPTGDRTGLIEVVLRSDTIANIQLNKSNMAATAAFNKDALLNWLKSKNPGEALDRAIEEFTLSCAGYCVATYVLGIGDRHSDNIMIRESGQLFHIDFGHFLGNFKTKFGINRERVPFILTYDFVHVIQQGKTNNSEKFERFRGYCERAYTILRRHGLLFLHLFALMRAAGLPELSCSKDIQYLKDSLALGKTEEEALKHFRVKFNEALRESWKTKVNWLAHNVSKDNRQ
T1 sequence (P27986 whole entry partner): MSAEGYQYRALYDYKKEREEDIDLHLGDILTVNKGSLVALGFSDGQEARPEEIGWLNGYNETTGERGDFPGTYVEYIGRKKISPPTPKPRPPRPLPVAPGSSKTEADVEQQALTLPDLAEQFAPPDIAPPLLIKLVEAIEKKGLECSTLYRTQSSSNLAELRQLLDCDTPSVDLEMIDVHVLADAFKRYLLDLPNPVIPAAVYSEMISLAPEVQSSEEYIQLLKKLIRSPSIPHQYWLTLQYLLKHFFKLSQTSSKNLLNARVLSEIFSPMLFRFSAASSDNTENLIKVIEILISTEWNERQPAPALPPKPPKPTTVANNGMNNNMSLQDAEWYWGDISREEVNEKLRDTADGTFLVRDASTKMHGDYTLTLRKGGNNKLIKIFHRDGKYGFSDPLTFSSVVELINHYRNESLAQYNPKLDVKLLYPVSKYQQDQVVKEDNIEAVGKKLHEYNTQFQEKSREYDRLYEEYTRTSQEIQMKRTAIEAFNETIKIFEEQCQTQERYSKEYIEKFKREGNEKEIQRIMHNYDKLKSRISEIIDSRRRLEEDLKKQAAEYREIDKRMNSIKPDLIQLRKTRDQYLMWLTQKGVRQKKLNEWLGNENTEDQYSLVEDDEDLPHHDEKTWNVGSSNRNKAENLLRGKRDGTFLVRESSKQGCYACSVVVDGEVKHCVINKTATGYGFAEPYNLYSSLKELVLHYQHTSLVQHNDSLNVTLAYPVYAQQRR

## CNC(=O)[C@H](C)Cn1cnc2ccc(-c3cnc(OC)c(NS(=O)(=O)c4ccc(F)cc4F)c3)cc2c1=O
PI3Kδ
  Selectivity PI3Kα/δ (kinase): 7.44 times
p-AKT
  Akt phosphorylation level downstream of PI3K in tumor tissue (Western blot, FIG. 10): significantly inhibit
